Experimental data taken from patent US11084795B2, “CFTR regulators and methods of use thereof” (The Regents of the University of California, priority 2015, dated 2021).
Entries after “also recorded” stand apart in the source; their conditions may differ.

What was measured:
[1] = Stability in simulated gastric fluid (pH 2); assay type: physicochemical; conditions: 10 μM, pH 2, 37° C., 3 h
Description: To study gastric acid stability CFTRact-J027 (10 μM) was dissolved in simulated gastric fluid (0.2 NaCl, 0.7% HCl, pH 2) and incubated for 3 h at 37° C. To study in vitro metabolic stability CFTRact-J027 (5 μM) was incubated for specified times at 37° C. with human liver microsomes (1 mg protein/ml; Sigma-Aldrich) in potassium phosphate buffer (100 mM) containing 1 mM NADPH. After specified incubation periods the mixtures were chilled on ice, and 0.5 ml of ice-cold ethyl acetate was added. Samples were centrifuged for 15 min at 3000 rpm, the supernatants evaporated to dryness, and the residues were dissolved in 100 μL mobile phase (acetonitrile:water, 3:1) and assayed by liquid chromatography mass spectrometry (LC/MS). The solvent system consisted of a linear gradient from 5 to 95% acetonitrile over 16 min (0.2 ml/min flow). Mass spectra were acquired on a mass spectrometer (Waters 2695 and Micromass ZQ, Milford, Mass.) using electrospray (+) ionization, mass ranging from 100 to 1500 Da, cone voltage 40 V.

tear fluid secretion = assay type: in vivo, mouse; conditions: wild-type mice; B074 100 μM, J027 and K089 50 μM, VX-770 10 μM, cholera toxin 0.1 μg/mL, forskolin 20 μM, IBMX 250 μM
[2] = Pharmacokinetics in mice (plasma LC/MS); assay type: in vivo, mouse
Description: (§1) Blood was collected at 15, 30, 60, 150, 240 and 360 min after treatment by orbital puncture and centrifuged at 5000 rpm for 15 min to separate plasma. Plasma samples (60 μL) were mixed with 300 μL acetonitrile and centrifuged at 13000 rpm for 20 min, and 90 μL of the supernatant was used for LC/MS. The solvent system consisted of a linear gradient from 5 to 95% acetonitrile over 16 min (0.2 ml/min flow). Mass spectra was acquired on a mass spectrometer (Waters 2695 and Micromass ZQ) using electrospray (+) ionization, mass ranging from 100 to 1500 Da, cone voltage 40 V. Calibration standards were prepared in plasma from untreated mice to which known amounts of CFTRact-J027 were added.
as §1, with “Pharmacokinetics. […] Blood” for “Blood”

[3] = In vitro metabolic stability in mouse liver microsomes; assay type: in vitro ADME; conditions: NADPH
Description: (§2) CFTRact-J027 (5 μM) was incubated for specified times at 37° C. with mouse liver microsomes (1 mg protein/ml; Sigma-Aldrich) in potassium phosphate buffer (100 mM) containing 1 mM NADPH, as described. The mixture was then chilled on ice, and 0.5 ml of ice-cold ethyl acetate was added. Samples were centrifuged for 15 min at 3000 rpm, the supernatant evaporated to dryness, and the residue was dissolved in 100 μL mobile phase (acetonitrile:water, 3:1) for LC/MS and assayed as described above.
as §2, with “In vitro metabolic stability. CFTRact-J027” for “CFTRact-J027”
In vitro metabolic stability. Test compound (at 5 μM) was incubated for specified times at 37° C. with mouse liver microsomes (1 mg protein/ml; Sigma-Aldrich, St. Louis, Mo.) in potassium phosphate buffer containing 1 mM NADPH, as described. Following ethyl acetate extraction, non-metabolized parent compound was assayed by LC/MS.

[4] = system: Cl− secretion in mouse colon; experiment: Short-circuit current in freshly isolated mouse colon; conditions: read-out: EC50 for increase in short-circuit current in mouse colon
From the text: Short-circuit current measurement.

C3H/HeJ mice = experiment: Genetic mouse model of chronic constipation (C3H/HeJ); assay type: in vivo
Description: The efficacy of orally administered CFTRact-J027 (10 mg/kg) was also tested in a genetically constipated mouse strain (15) (C3H/HeJ, age 8-11 weeks) and their wildtype counterparts (C3H/HeOuJ, age 8-11 weeks). Mice were placed in metabolic cages after CFTRact-J027 or vehicle administration at zero time and stool was collected for 4 h. Stool weight, pellet number and water content were determined as described above. Whole-gut transit time was measured to assess gut motility, in which mice treated with CFTRact-J027 (10 mg/kg, ip) or vehicle at zero time were given with 100 μL blue marker (5% Evans blue, 5% gum Arabic) orally. The time of blue dye appearance in stool was determined. All experiments in C3H/HeJ and C3H/HeOuJ mice were done in paired animals to minimize variability.

Compound: Nc1ccc([N+](=O)[O-])cc1-c1nc2ccccc2n(Cc2ccccc2)c1=O [CFTRact-J027, 3-(2-amino-5-nitrophenyl)-1-benzylquinoxalin-2(1H)-one]
- degradation in simulated gastric fluid [1]: no compound degradation
- tear fluid secretion after single topical dose (tear fluid secretion): increased tear fluid secretion by approximately two-fold for at least four hours
- serum concentration at 150 min ([2]; 10 mg/kg ip): undetectable
- oral bioavailability ([2]; 10 mg/kg oral): very low bioavailability; also recorded: minimal bioavailability
- serum concentration at other time points ([2]; 10 mg/kg oral): undetectable
- half-life ([2]; female, CD1, mouse, serum, 10 mg/kg ip, read-out: serum elimination half-life): 16 min
- concentration at 30 min ([2]; female, CD1, mouse, serum, 10 mg/kg oral): 180 nM
- compound metabolized at 60 min ([3]; mouse hepatic microsomes): ~100%
- original compound remaining at 60 min ([3]; mouse liver microsomes): 7%
- half-life at 5 μM ([3]; mouse, liver microsomes, 5 μM, read-out: elimination half-life in mouse liver microsomes): 21 min
- EC50 [4]: ~300 nM
- whole-gut transit time in C3H/HeJ mice (C3H/HeJ mice; 10 mg/kg ip): normalized the increased whole-gut transit time
- 4-h stool weight, pellet number and water content (C3H/HeJ mice; 10 mg/kg oral, C3H/HeJ mice): increased 4-h stool weight, pellet number and water content in C3H/HeJ mice to the level of wildtype controls
- stool parameters and whole-gut transit time in wildtype control mice (C3H/HeJ mice; C3H/HeOuJ mice): did not affect stool parameters or whole-gut transit time
